Test results taken from ChEMBL document CHEMBL2396531, “Hybrid molecule from O2-(2,4-dinitrophenyl)diazeniumdiolate and oleanolic acid: a glutathione S-transferase π-activated nitric oxide prodrug with selective anti-human hepatocellular carcinoma activity and improved stability” (J Med Chem, 2013).
The source made the active and inactive calls.

Legend:
Homo sapiens = species on record: Homo sapiens; experiment: Ratio of Kcat to Km for human GSTalpha
H22 [1] = experiment: Antitumor activity against mouse H22 cells […] in mouse assessed as reduction in tumor growth at 153.8 umol/kg, ip after 14 days; assay type: functional, organism-based
HepG2 [2] = experiment: Cytotoxicity against human HepG2 cells assessed as cell viability at 3 uM after 24 hrs by MTT assay in presence of hemoglobin; assay type: functional, cell-based
HepG2 [3] = experiment: Induction of intracellular NO release in human HepG2 cells at 1.5 to 6 uM after 24 hrs by DAF-FM DA staining-based flow cytometry; assay type: functional, cell-based
HepG2 [4] = experiment: Induction of apoptosis in human HepG2 cells at 3 uM after 24 hrs by Western blotting analysis in presence of Tiron; assay type: functional, cell-based
HepG2 [5] = experiment: Induction of apoptosis in human HepG2 cells at 3 uM after 24 hrs by Western blotting analysis in presence of carboxy-PTIO; assay type: functional, cell-based
HepG2 [6] = experiment: Induction of apoptosis in human HepG2 cells at 3 uM after 24 hrs by Western blotting analysis in presence of EA; assay type: functional, cell-based
HepG2 [7] = experiment: Induction of apoptosis in human HepG2 cells assessed as ROS generation at 1.5 to 6 uM after 24 hrs by flow cytometry in presence of Tiron; assay type: functional, cell-based
HepG2 [8] = experiment: Induction of apoptosis in human HepG2 cells assessed as increase in ROS generation at 1.5 to 6 uM after 24 hrs by flow cytometry; assay type: functional, cell-based
HepG2 [9] = experiment: Induction of apoptosis in human HepG2 cells assessed as increase in p38 phosphorylation at 3 uM by Western blotting analysis; assay type: functional, cell-based; details: TDE = time-dependent effect
HepG2 [10] = experiment: Induction of apoptosis in human HepG2 cells assessed as increase in JNK phosphorylation at 3 uM by Western blotting analysis; assay type: functional, cell-based; details: TDE = time-dependent effect
HepG2 [11] = experiment: Induction of apoptosis in human HepG2 cells assessed as increase in ERK phosphorylation at 3 uM by Western blotting analysis; assay type: functional, cell-based; details: TDE = time-dependent effect
HepG2 [12] = experiment: Induction of apoptosis in human HepG2 cells assessed as increase in p38 phosphorylation after 24 hrs by Western blotting analysis; assay type: functional, cell-based
HepG2 [13] = experiment: Induction of apoptosis in human HepG2 cells assessed as increase in ERK phosphorylation after 24 hrs by Western blotting analysis; assay type: functional, cell-based
HepG2 [14] = experiment: Induction of apoptosis in human HepG2 cells assessed as increase in JNK phosphorylation after 24 hrs by Western blotting analysis; assay type: functional, cell-based
HepG2 [15] = experiment: Induction of apoptosis in human HepG2 cells assessed as reduction in Bcl2 expression at 6 uM by Western blotting analysis; assay type: functional, cell-based; details: TDE = time-dependent effect
HepG2 [16] = experiment: Induction of apoptosis in human HepG2 cells assessed as incerase in Caspase 3 expression at 6 uM by Western blotting analysis; assay type: functional, cell-based; details: TDE = time-dependent effect
HepG2 [17] = experiment: Induction of apoptosis in human HepG2 cells assessed as incerase in Caspase 9 expression at 6 uM by Western blotting analysis; assay type: functional, cell-based; details: TDE = time-dependent effect
HepG2 [18] = experiment: Induction of apoptosis in human HepG2 cells assessed as incerase in Cyt c expression at 6 uM by Western blotting analysis; assay type: functional, cell-based; details: TDE = time-dependent effect
HepG2 [19] = experiment: Induction of apoptosis in human HepG2 cells assessed as incerase in Bax expression at 6 uM by Western blotting analysis; assay type: functional, cell-based; details: TDE = time-dependent effect
HepG2 [20] = experiment: Induction of apoptosis in human HepG2 cells assessed as reduction in Bcl2 expression after 24 hrs by Western blotting analysis; assay type: functional, cell-based
HepG2 [21] = experiment: Induction of apoptosis in human HepG2 cells assessed as incerase in Caspase 3 expression after 24 hrs by Western blotting analysis; assay type: functional, cell-based
HepG2 [22] = experiment: Induction of apoptosis in human HepG2 cells assessed as incerase in Cyt c expression after 24 hrs by Western blotting analysis; assay type: functional, cell-based
HepG2 [23] = experiment: Induction of apoptosis in human HepG2 cells assessed as incerase in Caspase 9 expression after 24 hrs by Western blotting analysis; assay type: functional, cell-based
HepG2 [24] = experiment: Induction of apoptosis in human HepG2 cells assessed as incerase in Bax expression after 24 hrs by Western blotting analysis; assay type: functional, cell-based
HepG2 [25] = experiment: Induction of apoptosis in human HepG2 cells assessed as loss of mitochondrial membrane potential after 24 hrs by JC-1 staining-based flow cytometry; assay type: functional, cell-based
HepG2 [26] = experiment: Induction of apoptosis in human HepG2 cells assessed as loss of mitochondrial membrane potential at 1.5 to 6 uM after 24 hrs by JC-1 staining-based flow cytometry; assay type: functional, cell-based
HepG2 [27] = experiment: Cell cycle arrest in human HepG2 cells assessed as decrease of cells at G0/G1 phase after 24 hrs by flow cytometry; assay type: functional, cell-based
HepG2 [28] = experiment: Cell cycle arrest in human HepG2 cells assessed as accumulation at G2/M phase after 24 hrs by flow cytometry; assay type: functional, cell-based
HepG2 [29] = experiment: Induction of apoptosis in human HepG2 cells after 24 hrs by FITC-Annexin V/PI staining-based flow cytometry; assay type: functional, cell-based
H22 [30] = experiment: Antitumor activity against mouse H22 cells […] in mouse assessed as reduction in tumor growth at 38.3 umol/kg, ip after 14 days; assay type: functional, organism-based
H22 [31] = experiment: Antitumor activity against mouse H22 cells […] in ip dosed mouse assessed as reduction in tumor weight after 14 days relative to vehicle-treated control; assay type: functional, organism-based
H22 [32] = experiment: Antitumor activity against mouse H22 cells […] in ip dosed mouse assessed as reduction in tumor volume after 14 days relative to vehicle-treated control; assay type: functional, organism-based
HepG2 [33] = experiment: Induction of intracellular NO release in human HepG2 cells at 1.5 to 6 uM after 24 hrs by Griess assay in presence of etacrynic acid; assay type: functional, cell-based
HepG2 [34] = experiment: Induction of intracellular NO release in human HepG2 cells at 1.5 to 6 uM after 24 hrs by Griess assay in presence of carboxy-PTIO; assay type: functional, cell-based
L02 [35] = experiment: Induction of intracellular NO release in human LO2 cells at 6 uM by Griess assay; assay type: functional, cell-based; details: TDE = time-dependent effect
HepG2 [36] = experiment: Induction of intracellular NO release in human HepG2 cells at 1.5 to 6 uM after 24 hrs by Griess assay in presence of hemoglobin; assay type: functional, cell-based
HepG2 [37] = experiment: Induction of intracellular NO release in human HepG2 cells at 6 uM by Griess assay; assay type: functional, cell-based; details: TDE = time-dependent effect
L02 [38] = experiment: Induction of intracellular NO release in human LO2 cells after 6 hrs by Griess assay; assay type: functional, cell-based
HepG2 [39] = experiment: Induction of intracellular NO release in human HepG2 cells after 24 hrs by DAF-FM DA staining-based flow cytometry; assay type: functional, cell-based
HepG2 [40] = experiment: Induction of intracellular NO release in human HepG2 cells after 6 hrs by Griess assay; assay type: functional, cell-based
HepG2 [41] = experiment: Induction of intracellular NO release in human HepG2 cells at 30 uM after 6 hrs by Griess assay; assay type: functional, cell-based
HepG2 [42] = experiment: Cytotoxicity against human HepG2 cells at 10 to 100 uM after 24 hrs by MTT assay; assay type: functional, cell-based
HepG2 [43] = experiment: Cytotoxicity against human HepG2 cells at 5 t0 35 uM by MTT assay; assay type: functional, cell-based; details: TDE = time-dependent effect
HepG2 [44] = experiment: Cytotoxicity against human HepG2 cells after 24 hrs by MTT assay; assay type: functional, cell-based

CN(CCO)/[N+]([O-])=N\Oc1cc(N2CCN(CC(=O)O[C@H]3CC[C@]4(C)[C@H]5CC=C6[C@@H]7CC(C)(C)CC[C@]7(C(=O)O[C@@H]7O[C@H](CO)[C@H](O)[C@H](O)[C@H]7O)CC[C@@]6(C)[C@]5(C)CC[C@H]4C3(C)C)CC2)c([N+](=O)[O-])cc1[N+](=O)[O-]
2730 M⁻¹ s⁻¹: kcat/Km (Homo sapiens)
active: Activity (H22 [1]) | Activity (HepG2 [2]) | Activity (HepG2 [3]) | Activity (HepG2 [4]) | Activity (HepG2 [5]) | Activity (HepG2 [6]) | Activity (HepG2 [7]) | Activity (HepG2 [8]) | Activity (HepG2 [9]) tde | Activity (HepG2 [10]) tde | Activity (HepG2 [11]) tde | Activity (HepG2 [12]) Dose-dependent effect | Activity (HepG2 [13]) Dose-dependent effect | Activity (HepG2 [14]) Dose-dependent effect | Activity (HepG2 [15]) tde | Activity (HepG2 [16]) tde | Activity (HepG2 [17]) tde | Activity (HepG2 [18]) tde | Activity (HepG2 [19]) tde | Activity (HepG2 [20]) Dose-dependent effect | Activity (HepG2 [21]) Dose-dependent effect | Activity (HepG2 [22]) Dose-dependent effect | Activity (HepG2 [23]) Dose-dependent effect | Activity (HepG2 [24]) Dose-dependent effect | Activity (HepG2 [25]) Dose-dependent effect | Activity (HepG2 [26]) | Activity (HepG2 [27]) Dose-dependent effect | Activity (HepG2 [28]) Dose-dependent effect | Activity (HepG2 [29]) Dose-dependent effect | Activity (H22 [30]) | Activity (H22 [31]) Dose-dependent effect | Activity (H22 [32]) Dose-dependent effect | Activity (HepG2 [33]) | Activity (HepG2 [34]) | Activity (L02 [35]) tde | Activity (HepG2 [36]) | Activity (HepG2 [37]) tde | Activity (L02 [38]) Dose-dependent effect | Activity (HepG2 [39]) Dose-dependent effect | Activity (HepG2 [40]) Dose-dependent effect | Activity (HepG2 [41]) | Activity (HepG2 [42]) | Activity (HepG2 [43]) tde | Activity (HepG2 [44]) Dose-dependent effect
